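Five compound concentrations were applied to cells in 96-well plates for 48 hours; endpoints were derived by simple linear interpolation of the resulting dose-response curve. Definition used: TGI = concentration required for complete inhibition of growth.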
Columns and labels:
Assay in all cases: NCI-60 cell line screen, 48 h
[1] = test system: 786-0 renal
[2] = test system: A498 renal
[3] = test system: A549 NSCLC
[4] = test system: ACHN renal
[5] = test system: BT-549 breast
[6] = test system: CAKI-1 renal
[7] = test system: CCRF-CEM leukemia
[8] = test system: COLO 205 colon
[9] = test system: DU-145 prostate
[10] = test system: EKVX NSCLC
[11] = test system: HCC-2998 colon
[12] = test system: HCT-116 colon
[13] = test system: HCT-15 colon
[14] = test system: HL-60(TB) leukemia
[15] = test system: HOP-62 NSCLC
[16] = test system: HOP-92 NSCLC
[17] = test system: HS 578T breast
[18] = test system: HT29 colon
[19] = test system: IGROV1 ovarian
[20] = test system: K-562 leukemia
[21] = test system: KM12 colon
[22] = test system: LOX IMVI melanoma
[23] = test system: M14 melanoma
[24] = test system: MCF7 breast
[25] = test system: MDA-MB-231 breast
[26] = test system: MDA-MB-435
[27] = test system: MDA-N
[28] = test system: MOLT-4 leukemia
[29] = test system: NCI-H226 lung
[30] = test system: NCI-H23 lung
[31] = test system: NCI-H460 lung
[32] = test system: NCI-H522 lung
[33] = test system: NCI/ADR-RES ovarian
[34] = test system: OVCAR-3 ovarian
[35] = test system: OVCAR-4 ovarian
[36] = test system: OVCAR-5 ovarian
[37] = test system: OVCAR-8 ovarian
[38] = test system: PC-3 prostate
[39] = test system: RPMI-8226 leukemia
[40] = test system: RXF 393 renal
[41] = test system: SF-268 CNS
[42] = test system: SF-295 CNS
[43] = test system: SF-539 CNS
[44] = test system: SK-MEL-2 melanoma
[45] = test system: SK-MEL-28 melanoma
[46] = test system: SK-MEL-5 melanoma
[47] = test system: SN12C renal
[48] = test system: SNB-19 CNS
[49] = test system: SNB-75 CNS
[50] = test system: SR leukemia
[51] = test system: SW-620 colon
[52] = test system: T-47D breast
[53] = test system: TK-10 renal
[54] = test system: U251 CNS
[55] = test system: UACC-257 melanoma
[56] = test system: UACC-62 melanoma
[57] = test system: UO-31 renal

Measured: TGI

COc1ccccc1CNCc1nc2ccccc2[nH]1
> 100 µM: all assays above
